From US20040231558A1, “Water-color ink” (priority 2001, published 2004)

Experiments:
Format in all cases: physicochemical
[1] = Evaluation of light fastness-1 (OD value of printed portion after 100 hours xenon fadeometer); details: ink prepared as in Example 1 from the salt named in the row; OD value of printed portion after 100 hours xenon fadeometer
Description: (§1) The prepared ink was filled in an ink cartridge for a piezo-type ink-jet printer EM-930C (manufactured by Seiko Epson). The printing was performed with this printer, and the light fastness was evaluated. Further, the storage stability of the ink was evaluated.
(A)-1 Evaluation of Light Fastness-1
Printing density (OD value) was measured after irradiating a printed portion with light for 100 hours using a xenon fadeometer (manufactured by Suga Shikenki) to evaluate the light fastness.

[2] = Evaluation of storage stability of ink (40° C. for 3 months, insoluble matter and clogging); details: recording liquid stored at 40° C. for 3 months; insoluble matter and clogging
Description: as §1
(C) Evaluation of Storage Stability of Ink:
After a recording liquid was stored at 40° C. for 3 months, it was observedwhether or not an insoluble matterwas precipitated, and whether or not clogging occurred after continuous recording with the foregoing printer for a long period of time.

[3] = Evaluation of moisture resistance (image-recorded paper at 40° C. and humidity 85%, visual observation); details: image-recorded paper at 40° C. and humidity 85%, visually observed
[4] = Evaluation of light fastness-2 (OD value of printed portion after 400 hours xenon fadeometer); details: ink prepared as in Example 1 from the salt named in the row, OD value of printed portion after 400 hours xenon fadeometer
Description: as §1
(A)-2 Evaluation of Light Fastness-2
Printing density (OD value) was measured after irradiating a printed-portion with light for 400 hours using axenon fadeometer (manufactured by Suga Shikenki), and the light fastness was evaluated.

Compound: CCc1c(N=Nc2cc(C(=O)O)ccc2C(=O)O)c(O)n(CCNc2nc(NCCn3c(O)c(N=Nc4cc(C(=O)O)ccc4C(=O)O)c(CC)c(C#N)c3=O)nc(NCCn3c(O)c(N=Nc4cc(C(=O)O)ccc4C(=O)O)c(CC)c(C#N)c3=O)n2)c(=O)c1C#N [Compound 273]
- (A)-1 light fastness-1 [1]: ⊚
- (C) storage stability [2]: ◯
- (B) moisture resistance [3]: ⊚
- (A)-2 light fastness-2 [4]: ⊚

Compound: Cc1c(N=Nc2c(C(=O)O)cccc2C(=O)O)c(O)n(CCNc2nc(Cl)nc(NCCn3c(O)c(N=Nc4c(C(=O)O)cccc4C(=O)O)c(C)c(C#N)c3=O)n2)c(=O)c1C#N [Compound 256]
- (A)-1 light fastness-1 [1]: ⊚
- (C) storage stability [2]: Δ
- (B) moisture resistance [3]: ⊚
- (A)-2 light fastness-2 [4]: ◯

Compound: Cc1c(N=Nc2cccc(C(=O)O)c2C(=O)O)c(O)n(CCCNc2nc(Cl)nc(NCCCn3c(O)c(N=Nc4cccc(C(=O)O)c4C(=O)O)c(C)c(C#N)c3=O)n2)c(=O)c1C#N [Compound 260]
- (A)-1 light fastness-1 [1]: ⊚
- (C) storage stability [2]: Δ
- (B) moisture resistance [3]: ⊚
- (A)-2 light fastness-2 [4]: ◯

Compound: Cc1c(N=Nc2cc(C(=O)O)ccc2C(=O)O)c(O)n(CCCNc2nc(NCCn3c(O)c(N=Nc4cc(C(=O)O)ccc4C(=O)O)c(C)c(C#N)c3=O)nc(NCCn3c(O)c(N=Nc4c(C(=O)O)cccc4C(=O)O)c(C)c(C#N)c3=O)n2)c(=O)c1C#N [Compound 270]
- (A)-1 light fastness-1 [1]: ⊚
- (C) storage stability [2]: Δ
- (B) moisture resistance [3]: ⊚
- (A)-2 light fastness-2 [4]: ⊚

Compound: Cc1c(N=Nc2cc(C(=O)O)ccc2C(=O)O)c(O)n(CCC(=O)O)c(=O)c1C#N [compound 78]
- (A)-1 light fastness-1 [1]: ⊚
- (C) storage stability [2]: ◯
- (B) moisture resistance [3]: ◯
- (A)-2 light fastness-2 ([4]; NH(CH2CH=CH2)3 salt form): ◯
- (A)-2 light fastness-2 ([4]; Na salt form): ⊚

Compound: N#Cc1c(-c2ccccc2)c(N=Nc2cc(C(=O)O)ccc2C(=O)O)c(O)n(CCCCCCNC(=O)c2cc(C(=O)O)c(C(=O)NCCCCCCn3c(O)c(N=Nc4cc(C(=O)O)ccc4C(=O)O)c(-c4ccccc4)c(C#N)c3=O)cc2C(=O)O)c1=O [Compound 287]
- (A)-1 light fastness-1 [1]: ⊚
- (C) storage stability [2]: ◯
- (B) moisture resistance [3]: ⊚
- (A)-2 light fastness-2 [4]: ⊚

Compound: Cc1c(N=Nc2cc(C(=O)O)ccc2C(=O)O)c(O)n(CCCCCCNC(=O)c2cc(C(=O)NCCCCCCn3c(O)c(N=Nc4cc(C(=O)O)ccc4C(=O)O)c(C)c(C#N)c3=O)c(C(=O)O)cc2C(=O)O)c(=O)c1C#N [Compound 299]
- (A)-1 light fastness-1 [1]: ⊚
- (C) storage stability [2]: ◯
- (B) moisture resistance [3]: ⊚
- (A)-2 light fastness-2 [4]: ◯

Compound: CCCCc1c(N=Nc2cc(C(=O)O)ccc2C(=O)O)c(O)n(CCNc2nc(Cl)nc(NCCn3c(O)c(N=Nc4cc(C(=O)O)ccc4C(=O)O)c(CCCC)c(C#N)c3=O)n2)c(=O)c1C#N [Compound 278]
- (A)-1 light fastness-1 [1]: ⊚
- (C) storage stability [2]: Δ
- (B) moisture resistance [3]: ⊚
- (A)-2 light fastness-2 [4]: ◯

Compound: Cc1c(N=Nc2cc(C(=O)O)ccc2C(=O)O)c(O)n(CCNc2nc(Cl)nc(NCCn3c(O)c(N=Nc4cc(C(=O)O)ccc4C(=O)O)c(C)c(C(N)=O)c3=O)n2)c(=O)c1C(N)=O [Compound 252]
- (A)-1 light fastness-1 [1]: ⊚
- (C) storage stability [2]: Δ
- (B) moisture resistance [3]: ⊚
- (A)-2 light fastness-2 [4]: ◯

Compound: Cc1c(N=Nc2cc(C(=O)O)ccc2C(=O)O)c(O)n(CCCCCCNc2nc(Cl)nc(NCCn3c(O)c(N=Nc4cc(C(=O)O)ccc4C(=O)O)c(C)c(C#N)c3=O)n2)c(=O)c1C#N [Compound 249]
- (A)-1 light fastness-1 [1]: ⊚
- (C) storage stability [2]: Δ
- (B) moisture resistance [3]: ⊚
- (A)-2 light fastness-2 [4]: ◯

Compound: Cc1c(N=Nc2cc(C(=O)O)ccc2C(=O)O)c(O)n(CCNC(=O)c2cc(C(=O)O)c(C(=O)NCCn3c(O)c(N=Nc4cc(C(=O)O)ccc4C(=O)O)c(C)c(C#N)c3=O)cc2C(=O)O)c(=O)c1C#N [Compound No. 279]
- (A)-1 light fastness-1 [1]: ⊚
- (C) storage stability [2]: ◯
- (B) moisture resistance [3]: ⊚
- (A)-2 light fastness-2 [4]: ⊚
